In PubChem BioAssay (NCI):
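Growth conditions: 96-well plates. Treatment: test compound, 48 hours, 5 concentrations. Analysis: linear interpolation between bracketing concentrations; unreached endpoints set to highest concentration. GI50 marks 50% less growth. TGI: concentration producing complete growth inhibition.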

Assays:
Assay in all cases: DTP human tumour cell line panel, 48 h
786-0 renal = test system: 786-0 renal
A549 NSCLC = test system: A549 NSCLC
ACHN renal = test system: ACHN renal
BT-549 breast = test system: BT-549 breast
CAKI-1 renal = test system: CAKI-1 renal
CCRF-CEM leukemia = test system: CCRF-CEM leukemia
DU-145 prostate = test system: DU-145 prostate
EKVX NSCLC = test system: EKVX NSCLC
HCC-2998 colon = test system: HCC-2998 colon
HCT-116 colon = test system: HCT-116 colon
HCT-15 colon = test system: HCT-15 colon
HL-60(TB) leukemia = test system: HL-60(TB) leukemia
HOP-62 NSCLC = test system: HOP-62 NSCLC
HOP-92 NSCLC = test system: HOP-92 NSCLC
HS 578T breast = test system: HS 578T breast
IGROV1 ovarian = test system: IGROV1 ovarian
KM12 colon = test system: KM12 colon
LOX IMVI melanoma = test system: LOX IMVI melanoma
MALME-3M melanoma = test system: MALME-3M melanoma
MCF7 breast = test system: MCF7 breast
MDA-MB-231 breast = test system: MDA-MB-231 breast
MDA-MB-435 = test system: MDA-MB-435
MOLT-4 leukemia = test system: MOLT-4 leukemia
NCI-H226 lung = test system: NCI-H226 lung
NCI-H23 lung = test system: NCI-H23 lung
NCI-H460 lung = test system: NCI-H460 lung
NCI-H522 lung = test system: NCI-H522 lung
NCI/ADR-RES ovarian = test system: NCI/ADR-RES ovarian
OVCAR-3 ovarian = test system: OVCAR-3 ovarian
OVCAR-4 ovarian = test system: OVCAR-4 ovarian
OVCAR-5 ovarian = test system: OVCAR-5 ovarian
OVCAR-8 ovarian = test system: OVCAR-8 ovarian
PC-3 prostate = test system: PC-3 prostate
RPMI-8226 leukemia = test system: RPMI-8226 leukemia
RXF 393 renal = test system: RXF 393 renal
SF-268 CNS = test system: SF-268 CNS
SF-295 CNS = test system: SF-295 CNS
SF-539 CNS = test system: SF-539 CNS
SK-MEL-2 melanoma = test system: SK-MEL-2 melanoma
SK-MEL-5 melanoma = test system: SK-MEL-5 melanoma
SK-OV-3 ovarian = test system: SK-OV-3 ovarian
SN12C renal = test system: SN12C renal
SNB-19 CNS = test system: SNB-19 CNS
SNB-75 CNS = test system: SNB-75 CNS
SR leukemia = test system: SR leukemia
SW-620 colon = test system: SW-620 colon
TK-10 renal = test system: TK-10 renal
U251 CNS = test system: U251 CNS
UACC-257 melanoma = test system: UACC-257 melanoma
UACC-62 melanoma = test system: UACC-62 melanoma
UO-31 renal = test system: UO-31 renal

CCCCCCCCCC(=O)Oc1ccc(/C(=C(/C)c2ccccc2)c2ccc(OCCN3CCCC3)cc2)cc1
GI50 (786-0 renal): 8.77 µM
TGI (786-0 renal): 16.8 µM
GI50 (A549 NSCLC): 9.35 µM
TGI (A549 NSCLC): 17.7 µM
GI50 (ACHN renal): 8.16 µM
TGI (ACHN renal): 15.5 µM
GI50 (BT-549 breast): 8.22 µM
TGI (BT-549 breast): 16.8 µM
GI50 (CAKI-1 renal): 6.77 µM
TGI (CAKI-1 renal): 13.9 µM
GI50 (CCRF-CEM leukemia): 9.51 µM
TGI (CCRF-CEM leukemia): 22.3 µM
GI50 (DU-145 prostate): 8 µM
TGI (DU-145 prostate): 14.8 µM
GI50 (EKVX NSCLC): 6.92 µM
TGI (EKVX NSCLC): 13.6 µM
GI50 (HCC-2998 colon): 8.66 µM
TGI (HCC-2998 colon): 17.2 µM
GI50 (HCT-116 colon): 8.01 µM
TGI (HCT-116 colon): 15.7 µM
GI50 (HCT-15 colon): 6.69 µM
TGI (HCT-15 colon): 13.1 µM
GI50 (HL-60(TB) leukemia): 9.24 µM
TGI (HL-60(TB) leukemia): 18.7 µM
GI50 (HOP-62 NSCLC): 8.75 µM
TGI (HOP-62 NSCLC): 17.3 µM
GI50 (HOP-92 NSCLC): 7.01 µM
TGI (HOP-92 NSCLC): 15.4 µM
GI50 (HS 578T breast): 9.55 µM
TGI (HS 578T breast): 32.2 µM
GI50 (IGROV1 ovarian): 8.67 µM
TGI (IGROV1 ovarian): 19.5 µM
GI50 (KM12 colon): 8.78 µM
TGI (KM12 colon): 16.7 µM
GI50 (LOX IMVI melanoma): 8.02 µM
TGI (LOX IMVI melanoma): 14.8 µM
GI50 (MALME-3M melanoma): 7.76 µM
TGI (MALME-3M melanoma): 15.7 µM
GI50 (MCF7 breast): 0.005 µM
TGI (MCF7 breast): 10.3 µM
GI50 (MDA-MB-231 breast): 10.2 µM
TGI (MDA-MB-231 breast): 20.2 µM
GI50 (MDA-MB-435): 7.47 µM
TGI (MDA-MB-435): 14.1 µM
GI50 (MOLT-4 leukemia): 8.61 µM
TGI (MOLT-4 leukemia): 20.3 µM
GI50 (NCI-H226 lung): 9.42 µM
TGI (NCI-H226 lung): 18.5 µM
GI50 (NCI-H23 lung): 7.74 µM
TGI (NCI-H23 lung): 16.1 µM
GI50 (NCI-H460 lung): 8.46 µM
TGI (NCI-H460 lung): 15.9 µM
GI50 (NCI-H522 lung): 9.36 µM
TGI (NCI-H522 lung): 18.4 µM
GI50 (NCI/ADR-RES ovarian): 8.03 µM
TGI (NCI/ADR-RES ovarian): 16.9 µM
GI50 (OVCAR-3 ovarian): 8.18 µM
TGI (OVCAR-3 ovarian): 16.1 µM
GI50 (OVCAR-4 ovarian): 7.39 µM
TGI (OVCAR-4 ovarian): 14.9 µM
GI50 (OVCAR-5 ovarian): 8.56 µM
TGI (OVCAR-5 ovarian): 16.5 µM
GI50 (OVCAR-8 ovarian): 9.78 µM
TGI (OVCAR-8 ovarian): 20.8 µM
GI50 (PC-3 prostate): 8.28 µM
TGI (PC-3 prostate): 15.7 µM
GI50 (RPMI-8226 leukemia): 9.13 µM
TGI (RPMI-8226 leukemia): 21 µM
GI50 (RXF 393 renal): 6.95 µM
TGI (RXF 393 renal): 14.1 µM
GI50 (SF-268 CNS): 8.16 µM
TGI (SF-268 CNS): 17.2 µM
GI50 (SF-295 CNS): 7.93 µM
TGI (SF-295 CNS): 15.1 µM
GI50 (SF-539 CNS): 8.7 µM
TGI (SF-539 CNS): 16.9 µM
GI50 (SK-MEL-2 melanoma): 9.49 µM
TGI (SK-MEL-2 melanoma): 18.1 µM
GI50 (SK-MEL-5 melanoma): 8.13 µM
TGI (SK-MEL-5 melanoma): 14.9 µM
GI50 (SK-OV-3 ovarian): 7.36 µM
TGI (SK-OV-3 ovarian): 14.8 µM
GI50 (SN12C renal): 9.15 µM
TGI (SN12C renal): 17.9 µM
GI50 (SNB-19 CNS): 9.04 µM
TGI (SNB-19 CNS): 17.7 µM
GI50 (SNB-75 CNS): 6.56 µM
TGI (SNB-75 CNS): 13.5 µM
GI50 (SR leukemia): 9.08 µM
TGI (SR leukemia): 19 µM
GI50 (SW-620 colon): 8.57 µM
TGI (SW-620 colon): 15.6 µM
GI50 (TK-10 renal): 8.86 µM
TGI (TK-10 renal): 16.7 µM
GI50 (U251 CNS): 8.01 µM
TGI (U251 CNS): 15.4 µM
GI50 (UACC-257 melanoma): 9.23 µM
TGI (UACC-257 melanoma): 16.8 µM
GI50 (UACC-62 melanoma): 9.18 µM
TGI (UACC-62 melanoma): 16.8 µM
GI50 (UO-31 renal): 6.72 µM
TGI (UO-31 renal): 14.2 µM
